Reference: patent US11066378B2, “Caffeic acid derivatives for anti-angiogenesis” (Taipei Medical University, priority 2015, dated 2021)

What follows are compounds tested on HUVECs (assay: Cell viability assay (MTT assay), growth inhibition of HUVECs). Conditions: Homo sapiens, HUVEC, 24 h, MTT assay, 24 h treatment, 5% FBS-stimulated HUVECs.
Format: cell-based, human
Experimental: Human umbilical vein endothelial cells (HUVECs; #8000) were purchased from the ScienCell Research Laboratories (San Diego, Calif., USA). The cells were seeded on gelatin-coated culture dishes and grown in the commercial endothelial cell medium (#1001; ScienCell) containing 5% fetal bovine serum (FBS; #0025; ScienCell), 30 μg/mL endothelial cell growth supplements (ECGS; #1052; ScienCell), 100 units/mL penicillin G, and 100 μg/mL streptomycin sulfates (#0503; ScienCell). Cells at passage 3-6 were used for experiments. Mouse Lewis lung carcinoma cell line 1 (LLC1; #60050) was bought from the Food Industry Research and Development Institute (Hsinchu, Taiwan) and cultured in Gibco® Dulbecco's modified Eagle's medium (#12800-017; Invitrogen, Carlsbad, Calif., USA) supplemented with 10% FBS (HyClone, Logan, Utah, USA), 4 mM L-glutamine, 1.5 g/L sodium bicarbonate, 100 units/mL penicillin G, and 100 μg/mL streptomycin. All cells were incubated in a humidified 5% CO2 atmosphere at 37° C. and culture media was changed every 2˜3 days.
The experiments were performed according to our previous study with minor modifications (Pan et al., 2010). Briefly, the cells (2×10^4 cells/well) were seeded and grown under normal culture medium for 24 h. After another 24 h of starvation with 0.5% FBS, the cells were treated with several concentrations (1, 2, 4, 8, and 16 μM) of the tested compounds for 24 h and then incubated with 5 mg/mL of MTT (3-[4,5-dimethyl thiazol-2-yl]-2,5-diphenyl tetrazolium bromide) for 2 h. After that, the cells were washed with 1×PBS and then dimethyl sulfoxide (DMSO) was added to each well. Absorbance values at 570 nm were determined for each well using 650 nm as the reference wavelength. The absorbance of the control group (treated with 5% or 10% FBS alone) was defined as 100%.
For `COc1cc([C@H]2Oc3c(OC)cc(/C=C/C=O)cc3[C@@H]2C)ccc1O` [K20A], the GI50 was 24 µM.
In the case of `COC(=O)/C=C/c1cc(OC)c2c(c1)[C@H](C(=O)OC)[C@@H](c1ccc(O)c(OC)c1)O2` [K20L], the GI50 is reported as 32 µM.
For `COC(=O)/C=C/c1cc(OC(C)=O)c2oc(-c3ccc(OC(C)=O)c(OC(C)=O)c3)c(C(=O)OC)c2c1` [K20B], the GI50 was 24 µM.
For `COC(=O)/C=C/c1ccc(O)c(O)c1` [Methyl caffeate, reference compound], the GI50 was 80 µM.
